Results reported in patent publication US9072729B2, “Method for treating fibrosis and cancer with imidazolium and imidazolinium compounds” (Agency for Science, Technology and Research, priority 2008, dated 2015).
Where two headings read alike, the source gives them in different places.

Tests used:
Type in all cases: cell-based, rat
fibronectin = test: Real-time RT-PCR of fibronectin mRNA in HSC T6 cells; conditions: 48 h; DPIM 2 mM, TMPHIM 50 μM, DBZIM 100 μM
Method: (§1) FIG. 6. (a) DBZIM and (b) TDBZIM suppressed the mRNA expression of HSC activation markers (GFAP and SMAA) and fibrotic endpoints (col1a1 and fibronectin) in a dosage-dependent manner. […] The ΔΔCt method was used for relative quantification with vehicle control sample being the calibrator. The data were presented as mean and SEM, N=6, *^aP<0.05, *^bP<0.01, *^cP<0.005, and *^dP<0.0005, when compared to the vehicle control. FIG. 7. DBZIM (100 μM) and TDBZIM (100 μM) suppressed (a) GFAP, (b) SMAA, (c) col1a1 and (d) fibronectin mRNA expression in a time-dependent manner. HSC T6 cells were treated with DBZIM and TDBZIM, and assayed after 8, 24 and 48 h. […] FIG. 14. […] (50 μM), […] (50 μM), […] (10 μM) and DBZBIM (100 μM) were dissolved in DMSO with a final DMSO concentration of 0.2% (v/v). DPIM (2 mM), EGCG (25 μM) and DBZIM (100 μM) were dissolved in H2O. β-actin was used as the normalization gene; its expression was constant under the experimental conditions. Relative quantification was normalized against the respective vehicle control. The data were presented as mean and SEM, N=6, *^aP<0.05, *^cP<0.005, and *^dP<0.0005, when compared to the vehicle control. Total RNA was isolated using NucleoSpin RNAII isolation kit ([…], Germany), and quantified by ND-100 spectrophotometer (Nanodrop Technologies, DE, USA). The details of real-time RT-PCR were reported elsewhere (Zhang et al. 2006). Briefly, it was a two-step real-time RT-PCR using Taqman chemistry. Total RNA was first reverse transcribed to cDNA, and real-time PCR was run and detected in ABI 7500 Fast Real-Time PCR System (Applied Biosystems, CA, USA). Primers and probes for rat GFAP, SMAA, collagen Ia1, fibronectin, TGF-β1, TGF-β receptor I (TGFβ RI) and IL-6 were ordered from Taqman's assay-on-demand database. Rat β-actin was used as normalization gene, and its expression level was constant (CT difference was <±0.5) throughout the experimental settings in this study. Relative quantification of target mRNA was calculated using comparative threshold cycle method (ΔΔCT) as described in User Bulletin #2 (ABI Prism 7700 Sequence Detection System). Relative quantification was given by 2^-ΔΔCT to express the up-regulation or down regulation of the target gene under the treatments compared to the control.

HSC T6 cells = test: MTS based proliferation assay (cytotoxicity) on cultured HSC-T6 cells; conditions: read-out: IC50 (toxicity on T6 cells)
Method: FIG. 1. Cytotoxicity of (a) DBZIM and (b) TDBZIM. […] The signal was normalized against a vehicle control treatment (0 μM of compound). The data were obtained from four independent experiments, and presented as mean and standard error or mean (SEM), *^aP<0.05, *^bP<0.01 and *^cP<0.005.
Firstly we assessed the cytotoxicity of DBZIM and TDBZIM on cultured HSC-T6 cells using a 3-(4,5-dimethylthiazol-2-yl)-5-(3-carboxymethoxyphenyl)-2-(4-sulfophenyl)-2H-tetrazolium (MTS) based proliferation assay kit (Promega, Wis., USA). […]

SMAA = test: Real-time RT-PCR of SMAA mRNA in HSC T6 cells; conditions: 48 h; DBIM 1 mM, DPIM 2 mM, AMIM 50 μM, TMPHIM 50 μM
Method: as §1

col1a1 = test: Real-time RT-PCR of col1a1 mRNA in HSC T6 cells; conditions: 48 h; DBIM 1 mM, DPIM 2 mM, TMPHIM 50 μM, DPPHIM 10 μM
Method: as §1

GFAP = test: Real-time RT-PCR of GFAP mRNA in HSC T6 cells; conditions: 48 h; DPIM 2 mM, AMIM 50 μM, TMPHIM 50 μM, DBZBIM 100 μM
Method: as §1

CAT = test: Catalase (CAT) activity assay in treated cells
Method: FIG. 4. […] Enzyme activity was normalized against total protein. DBZIM was dissolved in DMSO, and TDBZIM was dissolved in H2O. The data were presented as mean and SEM, N=6, *^aP<0.05, *^bP<0.01, *^cP<0.005, and *^dP<0.0005, when compared to the vehicle control.
Activity levels of three anti-oxidant enzymes, GPx, CAT and SOD, were determined using assay kits from Cayman Chemical. To assay GPx and CAT activities, protein samples were harvested in ice-cold PBS containing 1 mM of EDTA. […] Protein content was determined by BCA assay.
CAT activity was determined based on reaction of the enzyme with methanol in the presence of H2O2. The formaldehyde produced was measured spectrophotometrically at 540 nm using Purpald as the chromogen. CAT activity was expressed as nmol/min/mg protein.

GPx = test: Glutathione peroxidase (GPx) activity assay in treated cells
Method: (§2) FIG. 4. Effect of DBZIM and TDBZIM on GPx, CAT, SOD and GST. DBZIM affected (a) GPx activity and (c) CAT activity in a dosage-dependent manner. TDBZIM suppressed (b) GPx activity and (d) CAT activity. (e) DBZIM and (f) TDBZIM had little effect on SOD activity. (g) DBZIM induced GST activity. HSC T6 cells were treated with compounds of various concentrations for 48 h, and homogenized by sonication (60% frequency for 30 s) in PBS (pH 7.4, 1 mM of EDTA) for GPx, GST and CAT assays, or in 20 mM of HEPES buffer containing 1 mM of EGTA, 210 mM of mannitol and 70 mM of sucrose (pH 7.2) for SOD assay. Enzyme activity was normalized against total protein. DBZIM was dissolved in DMSO, and TDBZIM was dissolved in H2O. The data were presented as mean and SEM, N=6, *^aP<0.05, *^bP<0.01, *^cP<0.005, and *^dP<0.0005, when compared to the vehicle control.
(§3) Activity levels of three anti-oxidant enzymes, GPx, CAT and SOD, were determined using assay kits from Cayman Chemical. To assay GPx and CAT activities, protein samples were harvested in ice-cold PBS containing 1 mM of EDTA. To assay SOD activity, protein samples were prepared in 20 mM of N-(2-hydroxyethyl)-piperazine-N′-2-ethanesulfonic acid (HEPES) buffer containing 1 mM of ethylene glycol-bis(2-aminoethylether)-N,N,N′,N′-tetraacetic acid (EGTA), 210 mM of mannitol and 70 mM of sucrose. Protein content was determined by BCA assay.
GPx activity was indirectly measured by a coupled reaction with GSH reductase. Oxidized GSH, produced upon reduction of H2O2 by GPx, is recycled to its reduced state by glutathione reductase (GR) and nicotinamide adenine dinucleotide phosphate (NADPH). The oxidation of NAPDH is proportional to the GPx activity, and can be measured as a decrease in absorbance at 340 nm. GPx activity was expressed as nmol/min/mg protein.

SOD = test: Superoxide dismutase (SOD) activity assay in treated cells
Method: as §2, §3
Total SOD, including all three types of SOD (Cu/Zn-, Mn- and Fe-SOD), was quantified using a tetrazolium salt to detect superoxide radicals generated by xanthine oxidase and hyposanthine. […] SOD activity was expressed as U/mg protein.

HSC-T6 cells [1] = test: Glutathione (GSH) and GSSG assays
Method: FIG. 3. […] (c) DBZIM and (d) TDBZIM both suppressed cellular GSSG (the oxidation product of GSH). (e) DBZIM and (f) TDBZIM both enhanced the GSH/GSSG ratio. HSC-T6 cells were incubated with compounds of various concentrations for 48 h, and assayed for the total GSH and GSSG amounts. The GSH/GSSG ratio was calculated as (GSH−GSSG)/GSSG. The GSH and GSSG amounts were normalized against the total protein. Note that DBZIM was dissolved in DMSO, and TDBZIM was dissolved in H2O. The data were presented as mean and SEM, N=6, *^aP<0.05, *^bP<0.01, *^cP<0.005, and *^dP<0.0005, when compared to the vehicle control.
Total cellular GSH and GSSG levels were determined by using assay kits from Cayman Chemical (Ann Arbor, Mich., USA) following the manufacturer's instructions. Briefly, HSC-T6 cells treated with DBZIM, TDBZIM, NAC, or EGCG were scalped and homogenized in phosphate buffered saline (PBS) by sonication at 60% frequency for 30 s, and the supernatant was collected after centrifugation at 16,000×g for 10 min at 4° C. Protein content of the samples was determined by bicinchonicic acid (BCA) assay.
For GSH assays, the protein sample was deproteinated by metaphosphoric acid (Aldrich, Catalog No. 23927-5), and the pH was adjusted by triethanolamine (Aldrich, Catalog No. T5830-0) according to the manual. The sample was ready for assaying total GSH including both the reduced and oxidized forms. Quantification of GSSG, exclusive of GSH, was performed by first derivatizing GSH with 2-vinylpyridine and assaying separately. Colorimetric signal was recorded at 405 nm with a Tecan Safire II plate reader. The levels of GSH or GSSG were determined as nmol/μg protein.

HSC-T6 cells [2] = test: Cellular ROS determination (DCF labeling); conditions: EGCG 25 μM, NAC 1 mM, 48 h
Method: FIG. 2. (a) DBZIM and (b) TDBZIM attenuated cellular ROS level. HSC T6 cells were incubated with DBZIM (10, 50, 100 and 300 μM), TDBZIM (10, 50 and 100 μM), NAC (1 mM) and EGCG (25 μM) for 48 h before assaying for cellular ROS levels. The data were presented as relative values after normalizing against a vehicle control. The data were presented as mean and SEM, N=6, *^bP<0.01, *^cP<0.005, and *^dP<0.0005 when compared to the vehicle, control.
The ROS level of treated HSC-T6 cells was determined using the dichlorofluorescein (DCF) labeling method (Molecular Probes Inc., OR, USA). Cultured cells were harvested by trypsinization, and resuspended in phenol red-free DMEM (Invitrogen). Cells were then incubated with 10 μg/ml of 2′,7′-dichloro-fluorescein diacetate (DCFH-DA) in DMEM for 15 min before resuspension in DMEM for assaying. Cell solution was dispensed into a black-wall 96-well pate in triplicate for fluorescence readout at Ex=485 nm and Em=530 nm with a Tecan Safire II plate reader. The fluorescence unit was normalized against viable cell numbers, which were determined using 3-(4,5-dimethylthiazol-2-yl)-2,5-diphenyl tetrazolium bromide (MTT assay, Promega, Wis., USA). Cellular ROS level was expressed relative to the control sample.

GST = test: Glutathione S-transferase (GST) assay in treated cells; conditions: EGCG, NAC
Method: as §2
The activity of phase II anti-oxidant enzyme, GST, was assayed using a kit from Cayman Chemical. Protein samples were harvested in PBS buffer containing 1 mM of EDTA, and the protein concentration was determined by BCA assay. Total GST (cytosolic and microsomal) activity was assayed by measuring the conjugation of 1-chloro-2,4-dinitobenzene (CDNB) with reduced GSH, and monitored by an increase in absorbance at 340 nm. GST activity was expressed as nmol/min/mg protein.

[3] = Rattus norvegicus, HSC-T6, HSC T6 cells

**Q.** What does the source list for “1,3-bis(2,4,6-trimethylphenyl)-imidazolinium chloride [TMPHIM]”?
**A.** suppression of fibronectin mRNA (fibronectin): 29%; IC50 (HSC T6 cells; HSC T6 cells): 110 µM; suppression of SMAA mRNA (SMAA): 49%; suppression of col1a1 mRNA (col1a1): 62%; suppression of GFAP mRNA (GFAP): 66%

**Q.** What does the source list for “1,3-bis(2,6-diisopropyl-phenyl)-imidazolinium chloride [DPPHIM]”?
**A.** IC50 (HSC T6 cells; HSC T6 cells): 34 µM; suppression of col1a1 mRNA (col1a1): 47%

**Q.** What does the source list for “1,3-di-tert-butylimidazoliniumtetrafluoroborate [DBIM]”?
**A.** IC50 (HSC T6 cells; HSC T6 cells): 2000 to 3000 µM; suppression of SMAA mRNA (SMAA): 49%; suppression of col1a1 mRNA (col1a1): 58%

**Q.** What does the source list for `F[B-](F)(F)F.c1c[n+](C23CC4CC(CC(C4)C2)C3)cn1C12CC3CC(CC(C3)C1)C2` [AMIM, 1,3-bis(1-adamantyl)imidazolium tetrafluoroborate]?
**A.** IC50 (HSC T6 cells; [3]): 166 µM; suppression of SMAA mRNA (SMAA): 23%; suppression of GFAP mRNA (GFAP): 69%

**Q.** For `[Br-].c1ccc(Cn2c[n+](Cc3ccccc3)c3ccccc32)cc1` [DBZBIM, 1,3-bisbenzyl-benzimidazolium bromide], which IC50 (HSC T6 cells; [3]) is on record?
**A.** 310 µM

**Q.** And the “suppression of GFAP mRNA” value (GFAP)?
**A.** 50%

**Q.** What does the source list for `C[S+](C)[O-]` [DMSO, dimethylsulfoxide]?
**A.** CAT activity, of the control (CAT; 0.2% (v/v) DMSO vs untreated): 1.7 fold; GPx activity, of the control (GPx; 0.2% (v/v) DMSO vs untreated): 2.62 times; increase of SOD activity (SOD; 0.2% (v/v) DMSO vs untreated, not statistically significant): 10%; GSH/GSSG ratio, of the control (HSC-T6 cells [1]; 0.2% (v/v) DMSO vs untreated): 17%; GSSG amount, of the control (HSC-T6 cells [1]; 0.2% (v/v) DMSO vs untreated): 4.4 fold; total cellular GSH level, of the control (HSC-T6 cells [1]; 0.2% (v/v) DMSO vs untreated): 74%

**Q.** For `CC(=O)N[C@@H](CS)C(=O)O` [NAC, N-acetyl-L-cysteine, reference compound], which “suppression of CAT activity (references)” value (CAT; EGCG, NAC (FIG. 4c)) is on record?
**A.** 35%

**Q.** What about the “attenuation of GPx activity (references)” value (GPx; EGCG 25 μM, NAC 5 mM) of the same compound?
**A.** did not show much effect

**Q.** What about the “effect on SOD activity” value (SOD; HSC T6 cells, 48 h) of the same compound?
**A.** did not show much effect

**Q.** And the “attenuation of cellular ROS level (references)” value (HSC-T6 cells [2])?
**A.** did not show apparent inhibition

**Q.** What about the “effect on GST activity (references)” value (GST) of the same compound?
**A.** did not have much affect

**Q.** What about the “reduction of GSSG (references)” value (HSC-T6 cells [1]; EGCG 25 μM, NAC 5 mM, 48 h) of the same compound?
**A.** had no effect

**Q.** And the “increase in GSH/GSSG ratio (references)” value (HSC-T6 cells [1]; NAC 5 mM, EGCG 25 μM, 48 h)?
**A.** no change

**Q.** What about the “induction of total GSH (references)” value (HSC-T6 cells [1]; NAC 5 mM, EGCG 25 μM, 48 h) of the same compound?
**A.** did not show any effect
